In US20260151316A1, “FIBRILLIN PRODUCTION PROMOTER, COSMETIC COMPOSITION OR SKIN TOPICAL AGENT, ORALLY ADMINISTERED AGENT, AND ELASTIN FIBER PRODUCTION PROMOTER” (YAMASA CORPORATION, priority 2022, published 2026):

Tests used:
[1] = tested on: Fibrillin-1 (FBN-1) mRNA in normal human fibroblasts; assay: FBN-1 mRNA expression by real time PCR in fibroblasts treated with culture supernatant from three-dimensional cultured epidermis; type: cell-based; conditions: CMP, 2Na 1.0 and 2.0 (w/v %) applied to three-dimensional cultured epidermis; supernatant on NHDF; GAPDH as control
Protocol: The mRNA expression level of Fibrillin 1(FBN1 ), a factor related to elastin synthesis, was quantified by real-time PCR. Three-dimensional cultured epidermis (LabCyte EPI MODEL 24; manufactured by J TEC) was set in a 24-well plate to which 500 μL of the attached assay medium was added, and conditioned overnight at 37° C. 50 μL of sample-containing PBS (−) was applied from the stratum corneum side and cultured for 24 hours. After removing the sample-containing PBS (−), the plate was washed with PBS (−). The medium was replaced with a fresh medium, 50 μL of sample-containing PBS (−) was newly applied from the stratum corneum side, and further cultured for 48 hours. After culturing, the culture supernatant was collected. The concentrations of CMP, 2Na in the respective samples were 0, 1.0, and 2.0 (w/v %), respectively. Normal human fibroblasts were treated with the culture supernatant by the same method as that of Example 1. RNA was extracted from NHDF using RNeasy Mini Kit (QIAGEN), and mRNA expression analysis for Fibrillin-1 (FBN-1) was performed by real time PCR ([…]). Glyceraldehyde 3-phosphate dehydrogenase (GAPDH) was used as an endogenous control.

[2] = tested on: fibrillin-1 production in normal human fibroblasts (NHDF); assay: Fibrillin-1 quantification by ELISA, direct treatment of normal human fibroblasts with sample; type: cell-based; conditions: Example 1, FIG. 1 versus FIG. 2 (direct treatment and K-CM)
Protocol: Normal human fibroblasts (NHDF; Kurabo) were seeded in a 96-well plate at a density of 2.55×10^4 cells/well/100 μL and cultured at 37° C. for 24 hours. The medium was then replaced with 100 μL of media (HuMedia-KG2; Kurabo) adjusted to contain 0, 2.5, 5 (mM) (i.e., 0, 0.0918, 0.184 (w/v %) ) of CMP, 2Na and 0, 2.5, 5 (MM) (i.e., 0, 0.092, 0.184 (w/v %) ) of UMP, 2Na, and cultured for 24 hours.
The culture supernatant from normal human fibroblasts was collected and an amount of fibrillin-1 was quantified by ELISA. The protein amount of the culture supernatant was also measured by BCA protein assay.

[3] = tested on: elastin fibers in freshly extracted human skin; assay: Ex vivo evaluation test using freshly extracted human skin, elastica-van Gieson staining of elastin fibers; conditions: abdominal skin, CMP, 2Na 1.0 and 2.0 (w/v %) applied from the stratum corneum side, 72 hours
Protocol: Abdominal skin tissue was used, which was taken from a patient during cosmetic surgery, after obtaining informed consent for use in research. The extracted skin was placed in a culture plate supplemented with 1.3 ml of D-MEM/Ham's F-12 medium, and conditioned overnight at 37° C. in 5% CO2. An appropriate amount of PBS (−) containing a given concentration of each sample was applied from the stratum corneum side, and further cultured for 24 hours. The treatment was continued for a total of 72 hours while replacing the sample and medium with fresh ones every 24 hours. The concentrations of CMP, 2Na in the respective samples were 0, 1.0, and 2.0 (w/v %). After the cultured skin tissue was fixed according to a standard method, skin tissue sections were prepared, elastin fibers were stained with elastica-van Gieson stain, and observed under a microscope.

Compound | expression level of FBN-1 mRNA [1] | effect of promoting fibrillin production, cytidylic acid treatment compared with uridylic acid treatment [2] | density of elastin fibers (elastica-van Gieson staining) [3]
Nc1ccn([C@@H]2O[C@H](COP(=O)(O)O)[C@@H](O)[C@H]2O)c(=O)n1 [cytidylic acid] | increased, depending on the concentration | comparable | tended to result in denser elastin fibers
O=c1ccn([C@@H]2O[C@H](COP(=O)(O)O)[C@@H](O)[C@H]2O)c(=O)[nH]1 [uridylic acid] |  | comparable | 
